This is an account of results in patent publication EP0130882A2, “Bicyclo(3.2.1)octane carboxylic-acid derivatives, processes for their preparation and their therapeutical use” (SANOFI, priority 1983, dated 1985).

Where two headings read alike, the source gives them in different places.

Data set [1] deals with Crise électrique supramaximale. The experiment in a line: Supramaximal electroshock seizure test. Type of data set: in vivo, souris. Particulars: po, 0.5 h; per os, 30 min before supramaximal electroshock (50 HZ, 60 volts, 0,4 sec.), mouse; read-out: DE 50 (hyperextension tonique). From the text:
(§1) L'invention a donc encore pour objet un médicament ayant en particulier des activités anticonvulsivante et antianoxique caractérisé en ce qu'il contient, à titre de principe actif un dérivé de formule I. Tous les essais Toxico-pharmacologiques ont été pratiqués sur des souris mâles de souche CHARLES RIVER (CD1).
Cette expérimentation a été effectuée selon le test de Swinyard et al., (Am.J.Pharmacol, Ther., 1952,168-175). Les traitements ont été administrés per os à des lots de 10 souris 30 mn, avant l'électrochoc supramaximal (courant alternatif de 50 HZ, 60 volts pendant 0,4 sec.) délivré par l'intermédiaire d'électrodes intra-auriculaires. On note le nombre d'animaux dans chaque lot qui ne présentent pas d'hy- perextension tonique lors de la stimulation électrique trans- cranienne, et on détermine la DE 50 exprimée en mg/Kg.

The nature of another data set: in vivo. Particulars: mouse, po. Set-up: species or system souris.
Text: as §1
Dans le cadre de cette étude, on a déterminé l'activité sédative des composés de l'invention; on a utilisé dans ce but, le test du cylindre tournant (Boissier, J.R., Therapie 1958, 13,1074).
Ce test est destiné à apprécier l'aptitude des animaux à coordonner leurs mouvements. Il met en oeuvre un cylindre de bois, d'un diamètre de 4,8 cm, qui-tourne à la vitesse de 4 tours/mn. Le test est pratiqué sur des souris d'un poids 22 g environ. Les produits sont administrés par voie orale à différents lots de 10 animaux. Ces derniers sont placés sur l'appareil 15 minutes après l'administration du produit. On note le pourcentage de souris qui perdent le réflexe d'équilibration, c'est-à-dire qui deviennent incapables de se maintenir sur le cycindre pendant une durée de 2 minutes.
Par la méthode de Finney, on calcule une dose neuroto- xique 50 (DNT 50) qui exprime donc le niveau moyen -des premières atteintes neuromusculaires sous l'influence d'un produit étudié.

Data set [2] has as its system Crise à l'acide B - mercaptopropionique. The experiment in a line: B-mercaptopropionic acid seizure test. Particulars: oral, 15 min before acide B-mercaptopropionique 60 mg/Kg I.P., mouse; read-out: DE 50 (the source's name). Type of data set: in vivo, souris.
Text: as §1
L'acide B-mercaptopropionique est un inhibiteur de la glutamate-décarboxylase (GAD), enzyme qui catalyse la transformation du glutamate en acide Y-aminobutyrique (GABA). Son action se traduit donc par un abaissemement du taux de ŒBA et la survenue de crises généralisées tonico-cloniques 3 à 4 minutes après son administration. L'acide B-mercaptopropionique a été administré aux souris par voie I.P. à la dose de 60 mg/Kg. Le traitement pour les composés à tester est administré par la voie orale 15 minutes avant l'injection d'acide B-mercaptopionique. Les DE 50 exprimées en mg/Kg, ainsi déterminées sont : • Composé N° 2 = 90 • 5 = 30 • 6 = 60 • 7 = 120 • 8 = 70

Another data set concerns Crise à la bicuculline. The experiment in a line: Bicuculline seizure test. Type of data set: in vivo, souris. Particulars: oral, 30 min before bicuculline 0.65 mg/Kg i.v., observed for 30 min, mouse; read-out: DE 50 (convulsions toniques).
Text: as §1
Ce test a été effectué selon la méthode de Pérez de la Mora et Tapia (Biochem. Pharmacol., 1973,19,303-310). Les traitements ont été administrés par voie orale à des lots de 10 souris, 30 minutes avant l'injection de bicuculline (0.65 mg/Kg) par la voie intraveineuse. L'apparition des convulsions toniques a été notée pendant les 30 mn qui ont suivi l'injection de bicuculline. Les DE 50 en mg/Kg ainsi déterminées sont : • Composé N° 5 = 68 • 6 = 61 • 7 = 145 • 8 = 75

Another data set concerns Crise pentétrazolique. The experiment in a line: Pentetrazole seizure test (protection against tonic seizures). The note with it: read-out: DE 50 (protection contre les crises toniques). Type of data set: in vivo, souris. The source says: On note dans chaque lot le pourcentage de protection contre les crises toniques.
In another data set the test system is anoxie par confinement. The experiment in a line: Anoxia by confinement (antianoxic activity, survival time). Type of data set: in vivo, souris. Particulars: I.P. immediately before placing in closed 200 ml vessel, mouse; dose not given.
Text: as §1
Cette activité a été étudiée par la méthode de l'anoxie par confinement.
Des souris (20 par lot) sont placées dans une enceinte (bocal en verre) normobare, normoxique, hermétiquement close de 200 ml. Tous les traitements sont administrés par voie I.P. immédiatement avant l'introduction dans l'enceinte. L'animal est considéré comme mort au moment de l'arrêt respiratoire.
Les bocaux choisis étant très petits, l'activité motrice des animaux est extrêmement faible, ce qui élimine en principe la possibilité d'un résultat positif par effet sédatif. On note dans chaque lot le temps de survie des animaux.

The nature of data set [3]: Acute oral toxicity (DL 50, Finney method). Set-up: species or system souris. The note with it: in vivo, mouse. As for the experimental part: as §1
Ainsi, la DL 50 déterminée par voie orale chez la souris par la méthode Finney(Probit analysis, University Press Cambridge.,. 1971) est de 3000 mg/Kg pour le dérivé N° 5'et supérieure à 1000 mg/Kg pour tous les composés de l'invention.

[4] abbreviates: oral, 15 min before pentétrazole 125 mg/Kg i.p., mouse.

As to `CNC(=O)C1(C)CC2CCC(C2)C1` (stereo not shown) [dérivé N° 8, N-Méthyl mêthyl-3 bicyclo (3.2.1.) octane carboxamide-3], the ED50 turned out to be 310 mg/kg in data set [1], 70 mg/kg in data set [2], 75 mg/kg in the data set with Crise à la bicuculline and 115 mg/kg in the data set with Crise pentétrazolique (setting [4]). In “in vivo”, the TD50 at 0.25 h was 500 mg/kg.
In the case of `CCC1(C(N)=O)CC2CCC(C2)C1` (stereo not shown) [dérivé N° 6, Ethyl-3 bicyclo (3.2.1.) octane carboxamide-3], the ED50 in data set [1] turned out to be 210 mg/kg; in data set [2], 60 mg/kg; in the data set on Crise à la bicuculline, 61 mg/kg; in the data set on Crise pentétrazolique (setting [4]), 75 mg/kg. Moreover, the TD50 at 0.25 h in the data set “in vivo” was 400 mg/kg.
As to `CC1(C(=O)O)CC2CCC(C2)C1` (stereo not shown) [dérivé N° 2, Méthyl-3 bicyclo (3.2.1.) octane carboxylate -3 de sodium], the results for the ED50 (in data set [1]; in data set [2]; in the data set on Crise pentétrazolique (setting [4])) were 400 mg/kg, 90 mg/kg and 90 mg/kg, respectively. In the data set “in vivo”, this compound showed a TD50 at 0.25 h of 600 mg/kg. Also, in the data set with anoxie par confinement, the “temps de survie augmenté” value turned out to be 15 p 100.
The term LD50 denotes the dose at which mortality reaches 50%. High values mean a less toxic substance, low ones a more toxic substance. Turning to `CC1(C(N)=O)CC2CCC(C2)C1` (stereo not shown) [dérivé N° 5, Méthyl-3 bicyclo (3.2.1.) octane carboxamide-3], the ED50 stood at 210 mg/kg in data set [1], 30 mg/kg in data set [2], 68 mg/kg in the data set with Crise à la bicuculline and 53 mg/kg in the data set on Crise pentétrazolique (setting [4]). Besides, in the data set “in vivo”, the TD50 at 0.25 h came out at 365 mg/kg. For the same compound, the LD50 in data set [3] was determined as 3000 mg/kg. Also, in the data set with anoxie par confinement, the “temps de survie augmenté” value is 25 p 100.
For `CC(C)C1(C(N)=O)CC2CCC(C2)C1` (stereo not shown) [dérivé N° 7, Isopropyl-3 bicyclo (3.2.1.) octane carboxamide -3], the ED50 in data set [1] was 260 mg/kg; in data set [2], 120 mg/kg; with Crise à la bicuculline it was 145 mg/kg; with Crise pentétrazolique (setting [4]) it was 120 mg/kg. The TD50 at 0.25 h in “in vivo” stood at 230 mg/kg.
For the compound `CCCC(CCC)C(=O)O` [valproate de sodium, reference compound], the ED50 with Crise pentétrazolique (Mus musculus, po) was 200 mg/kg.
